Assay: Acid dissociation constants pKa of acid generated from compound (I), by computation (ACD/Labs software package 1; Gaussian 16 DFT if not computable)
Conditions: Table 1; values equal the difference between maximum and minimum pKa of the generated acid groups
Source text: In the present specification, the acid dissociation constant (pKa) is the pKa in an aqueous solution and is specifically a value determined by computation using the following software package 1 based on a Hammett substituent constant and a database of known literature values.
All pKa values in the present specification are values determined by computation using this software package.
Software package 1: Advanced Chemistry Development (ACD/Labs) Software V 8.14 for Solaris (1994-2007 ACD/Labs).
In the present specification, the pKa is a value determined by computation using the software package 1 based on the Hammett substituent constant and the database of known literature values as described above. When the pKa cannot be computed using this method, a value obtained using Gaussian 16 based on the DFT (density functional theory) is used.
The pKa values of the at least two acid groups generated from the compound (I) upon irradiation with actinic rays or radiation are determined using the following method.
(1) Suppose that all the acid anionic groups included in the compound (I) are replaced with their corresponding acid groups to generate an acid group-containing compound (PIA). In this case, there are two cases depending on the structure of the compound (I). In one case (case A), the acid group-containing compound (PIA) generated is a single compound (single molecule) having a plurality of acid groups. In the other case (case B), a plurality of compounds (plurality of molecules) each having at least one acid group are formed.
(2) The case A (its one specific example is mode 1 described below) will be described. A compound in which, among the plurality of acid groups included in the acid group-containing compound (PIA), an acid group having the smallest acid dissociation constant is reconverted to the corresponding acid anionic group is defined as an acid group-containing compound (PIA-1). The pKa when the acid group-containing compound (PIA) is converted to the acid group-containing compound (PIA-1) is determined and used as the pKa of the acid group reconverted to the acid anionic group. Next, a compound in which, among one or the plurality of acid groups included in the acid group-containing compound (PIA-1), an acid group having the smallest acid dissociation constant (when only one acid group is present, this acid group is used) is reconverted to the corresponding acid anionic group is defined as an acid group-containing compound (PIA-2). The pKa when the acid group-containing compound (PIA-1) is converted to the acid group-containing compound (PIA-2) is determined and used as the pKa of the acid group reconverted to the acid anionic group. This procedure is repeated until the resulting compound has no acid group, and the pKa values of the plurality of acid groups included in the acid group-containing compound (PIA) are thereby determined.
In the above method, when the number of acid groups having the smallest acid dissociation constant among the plurality of acid groups is two or more, one of these acid groups is arbitrarily selected, and the pKa when the compound is converted to a compound (PIA #) obtained by reconverting the selected acid group to its corresponding acid anionic group is determined. As for the pKa value of each of the remaining (unselected) acid groups, the pKa when the compound (PIA #) is converted to a “compound (PIA ##) obtained by reconverting an acid group newly selected from the remaining acid groups to its corresponding acid anionic group” is determined and used.
For a compound having one acid group, the pKa when the acid group in this compound is reconverted to the corresponding acid anionic group is used as the pKa of the acid group. When the compound having at least one acid group is a compound having a plurality of acid groups, the pKa of each acid group is determined using the method described in (2) above. […]

Row | SMILES | pKa
1 | O=C([N-]S(=O)(=O)C(F)(F)C(F)(F)C(F)(F)S(=O)(=O)[N-]C(=O)c1ccccc1[S+](c1ccccc1)c1ccccc1)c1ccccc1[I+]c1ccccc1 [Compound X-9] | 0.89
2 | O=C(NC(C(F)(F)F)C(F)(F)S(=O)(=O)[O-])c1ccc([S+](c2ccccc2)c2ccccc2S(=O)(=O)O)cc1 (stereo not shown) [Compound X-3] | 1.24
3 | O=C(NC(=O)C(F)(F)S(=O)(=O)[O-])c1ccc([S+](c2ccccc2)c2ccccc2)cc1 [Compound X-1] | 9.96
4 | COc1ccc([I+]c2cccc(C(=O)NS(=O)(=O)C(F)(F)C(F)(F)C(F)(F)S(=O)(=O)[N-]S(=O)(=O)C(F)(F)F)c2)cc1 [Compound X-11] | 10.26
5 | O=C([N-]C(=O)c1ccccc1[I+]c1ccccc1)c1ccc([I+]c2ccc(OS(=O)(=O)C(F)(F)C(F)(F)C(F)(F)S(=O)(=O)[O-])cc2)cc1 [Compound X-16] | 12.11
6 | Cc1ccc([I+]c2ccc(C(=O)NS(=O)(=O)C(F)(F)C(F)(F)C(F)(F)S(=O)(=O)[N-]S(=O)(=O)C(F)(F)F)cc2)cc1 [Compound X-12] | 5.67
7 | O=S(=O)(O)c1ccc([S+](c2ccccc2)c2ccc(OCC(F)(F)S(=O)(=O)[O-])cc2)cc1 (stereo not shown) [Compound X-6] | 0.77
